This note sets out measurements from patent US8147872B2, “Pharmaceutical compositions of drugs and neutralized acidic polymers” (Bend Reseach, Inc., priority 2001, dated 2012).

The structures appear in SMILES notation.

What is called AUC is concentration integrated over time.

A short description of series [1]: In vitro dissolution test of Drug 2 compositions in PBS pH 6.5 (microcentrifuge method, HPLC). Further details: AUC90: tested at 2000 µg/mL. It is filed as physicochemical. As for the experimental part: (§1) For this test, 14.4 mg of the dispersion was added to a microcentrifuge tube for a total Drug 2 concentration of approximately 2000 μg/mL if all of the drug were to dissolve completely. The tube was placed in a 37° C. temperature-controlled chamber, and 1.8 mL PBS as pH 6.5 and 290 mOsm/kg was added. The samples were quickly mixed using a vortex mixer for about 60 seconds. The samples were centrifuged at 13,000 G at 37° C. for 1 minute. The resulting supernatant solution was then sampled and diluted 1:6 (by volume) with methanol and then analyzed by high-performance liquid chromatography (HPLC). The contents of the tubes were mixed on the vortex mixer and allowed to stand undisturbed at 37° C. until the next sample was taken. Samples were collected at 4, 10, 20, 40, 90, and 1200 minutes.
For comparison, a Control C4 consisting of 3.6 mg of crystalline Drug 2 was added to PBS for a total concentration of 2000 μg/mL.
For this test, 14.4 mg of the dispersion was added to a microcentrifuge tube for a total Drug 2 concentration of approximately 2000 μg/mL if all of the drug were to dissolve completely. The dissolution test was performed as described in Example 9. Control C4 (consisting of 3.6 mg of crystalline Drug 2) is shown again for comparison.

Series [2] is described as follows: In vitro dissolution test of Drug 3 compositions in PBS with 0.5 wt % NaTC/POPC. Type of series: physicochemical. The conditions noted are these: for Drug 3 Concentration: approx. 200 μg/mL if all dissolved. As for the experimental part:
as §1
For these tests, 1.44 mg of each dispersion was added to a microcentrifuge tube containing PBS with 0.5 wt % sodium taurocholic acid and 1-palmitoyl-2-oleyl-sn-glycero-3-phosphocholine (“NaTC/POPC,” with a 4/1 weight ratio), for a total Drug 3 concentration of approximately 200 μg/mL if all of the drug were to dissolve completely. For Controls C5, C6, and C7 (with Drug 3B), 1.57 mg of each dispersion was added to PBS containing 0.5 wt % NaTC/POPC to yield approximately 200 μg/mL of active Drug 3. Control C8 consisted of 0.36 mg of crystalline Drug 3A. The dissolution tests were performed as described in Example 9.

Consider `O=C(N[C@@H](Cc1ccccc1)[C@@H](O)C(=O)N1C[C@@H](O)[C@@H](O)C1)c1cc2cc(Cl)ccc2[nH]1` [Example C4, 5-chloro-1H-indole-2-carboxylic acid[(1S)-benzyl-3-((3R,4S)-dihydroxypyrrolidin-1-yl)-(2R)-hydroxy-3-oxypropyl]amide], for which the AUC90 in series [1] (Drug 2, PBS pH 6.5, 37° C.) was 10,300 min * μg/mL. The compound further had a Cmax90 in series [1] (Drug 2, PBS pH 6.5, 37° C.) of 131 µg/mL. The exposure (AUC) was found to be 0 µg·h/mL in series [1] (Table 4, time 0 min, PBS pH 6.5, 37° C.); 5 µg·h/mL in series [1] (Table 4, time 4 min, PBS pH 6.5, 37° C.); 16.7 µg·h/mL in series [1] (Table 4, time 10 min, PBS pH 6.5, 37° C.); 36.7 µg·h/mL in series [1] (Table 4, time 20 min, PBS pH 6.5, 37° C.); 75 µg·h/mL in series [1] (Table 4, time 40 min, PBS pH 6.5, 37° C.); 172 µg·h/mL in series [1] (Table 4, time 90 min, PBS pH 6.5, 37° C.). For the same compound, the AUC in series [1] (Table 4, time 1200 min, PBS pH 6.5, 37° C.) was 2000 µg·h/mL; in series [1] (Table 5, AUC90 according to the text, PBS pH 6.5), 172 µg·h/mL; in series [1] (time 0 min, PBS pH 6.5, 37° C.), 0 µg·h/mL; in series [1] (time 4 min, PBS pH 6.5, 37° C.) it was 5 µg·h/mL; in series [1] (time 10 min, PBS pH 6.5, 37° C.) it was 1,000 min * μg/mL; in series [1] (time 20 min, PBS pH 6.5, 37° C.), 2,200 min * μg/mL. Besides, the area under the curve (AUC) in series [1] (time 40 min, PBS pH 6.5, 37° C.) is listed as 4,500 min * μg/mL; in series [1] (time 90 min, PBS pH 6.5, 37° C.), 10,300 min * μg/mL; in series [1] (time 1200 min, PBS pH 6.5, 37° C.), 120,200 min * μg/mL. The “Drug 2 Concentration” value in series [1] (Table 5, Cmax90 according to the text, PBS pH 6.5) was determined as 131 µg/mL; in series [1] (time 0 min, PBS pH 6.5, 37° C., approx. 2000 μg/mL if all dissolved) it was 0 µg/mL; in series [1] (time 4 min, PBS pH 6.5, 37° C., approx. 2000 μg/mL if all dissolved), 131 µg/mL; in series [1] (time 10 min, PBS pH 6.5, 37° C., approx. 2000 μg/mL if all dissolved), 114 µg/mL; in series [1] (time 20 min, PBS pH 6.5, 37° C., approx. 2000 μg/mL if all dissolved), 124 µg/mL; in series [1] (time 40 min, PBS pH 6.5, 37° C., approx. 2000 μg/mL if all dissolved) it was 107 µg/mL. The “Drug 2 Concentration” value amounted to 126 µg/mL in series [1] (time 90 min, PBS pH 6.5, 37° C., approx. 2000 μg/mL if all dissolved) and 72 µg/mL in series [1] (time 1200 min, PBS pH 6.5, 37° C., approx. 2000 μg/mL if all dissolved).
Regarding `O=C1Cc2cc(CCN3CCN(c4nsc5ccccc45)CC3)c(Cl)cc2N1` [Example C8, ziprazidone], the Cmax90 in series [2] (Drug 3) was 2 µg/mL. Also, the AUC in series [2] (Drug 3, time 0 min) was found to be 0 µg·min/mL; in series [2] (Drug 3, time 4 min) it was 0 µg·min/mL; in series [2] (Drug 3, time 10 min), 0 µg·min/mL; in series [2] (Drug 3, time 20 min), 0 µg·min/mL; in series [2] (Drug 3, time 40 min) it was 0 µg·min/mL; in series [2] (Drug 3, time 90 min), 100 µg·min/mL. The AUC was 1,800 min * μg/mL in series [2] (Drug 3, time 1200 min) and 100 µg·min/mL in series [2] (Table 9, AUC90 according to the text, Drug 3). Also, the “Drug 3 Concentration” value in series [2] (time 0 min) turned out to be 0 µg/mL; in series [2] (time 4 min), 1 µg/mL; in series [2] (time 10 min), 1 µg/mL; in series [2] (time 20 min) it was 1 µg/mL; in series [2] (time 40 min) it was 2 µg/mL; in series [2] (time 90 min), 1 µg/mL. The “Drug 3 Concentration” value in series [2] (time 1200 min) was determined as 2 µg/mL.
